Read-outs that look alike come from different tables or passages of the source.
Columns and labels:
Assay type in all cases: cell-based
[1] = target: T1, CFTR-G1349D (Homo sapiens, UniProt P13569, G1349D); assay: YFP-halide influx assay for the CFTR-G1349D
T1 construct: expressed in transfected cells
Text: (§1) The YFP halide influx assay measures the functionality of the cystic fibrosis Transmembrane Conductance regulator (CFTR) channels. The assay is used to evaluate the capacity of compounds to increase the channel opening of existing mutant CFTR channels in the membrane. It makes use of the observation that the yellow fluorescent protein (YFP) variant YFP H148Q, I152L, […] has its fluorescence substantially quenched by halide ions like Cl^− and I^−. (Galietta, Haggie, & Verkman, 2001)
(§2) For this purpose, HEK293-cells are seeded in 96 well plates. During seeding, the cells are reverse-transfected with plasmid vectors that direct the expression of the CFTR G551D mutant and of the YFP reporter. Cells are incubated at 37° C., 5% CO2 for 24 hours so as to allow for sufficient expression of the CFTR protein.
(§3) The I^−-induced quenching of fluorescence is recorded immediately after injection of I^− for 7 seconds. The capacity of a compound to increase the channel opening is directly correlated with the decrease in fluorescence, and is expressed as (1-(fluorescence after 7 seconds (F)/fluorescence before injection (F0))) and an EC50 can be derived from a (1-F/F0) vs compound concentration plot.
(§4) Similar YHA assays were developed for other channel gating defective or channel conductance defective CFTR mutants to determine effect of compound on channel activity. Examples of mutants are G178R, G1349D, S549N, R117H, R334W. This assay is also used for additional class I CFTR mutants, including G542X, W1282X; class II mutants including N1303K, and for class III mutants including S1251N.

[2] = target: T2, CFTR G551D mutant (Homo sapiens, UniProt P13569, G551D); assay: YFP-halide influx assay for the CFTR-G551D mutation; conditions: HEK293 cells, forskolin 10.67 μM
T2 construct: expressed in transfected cells; host or cells: HEK293 (reverse transfection with plasmid)
T2 sequence (P13569 whole entry G551D): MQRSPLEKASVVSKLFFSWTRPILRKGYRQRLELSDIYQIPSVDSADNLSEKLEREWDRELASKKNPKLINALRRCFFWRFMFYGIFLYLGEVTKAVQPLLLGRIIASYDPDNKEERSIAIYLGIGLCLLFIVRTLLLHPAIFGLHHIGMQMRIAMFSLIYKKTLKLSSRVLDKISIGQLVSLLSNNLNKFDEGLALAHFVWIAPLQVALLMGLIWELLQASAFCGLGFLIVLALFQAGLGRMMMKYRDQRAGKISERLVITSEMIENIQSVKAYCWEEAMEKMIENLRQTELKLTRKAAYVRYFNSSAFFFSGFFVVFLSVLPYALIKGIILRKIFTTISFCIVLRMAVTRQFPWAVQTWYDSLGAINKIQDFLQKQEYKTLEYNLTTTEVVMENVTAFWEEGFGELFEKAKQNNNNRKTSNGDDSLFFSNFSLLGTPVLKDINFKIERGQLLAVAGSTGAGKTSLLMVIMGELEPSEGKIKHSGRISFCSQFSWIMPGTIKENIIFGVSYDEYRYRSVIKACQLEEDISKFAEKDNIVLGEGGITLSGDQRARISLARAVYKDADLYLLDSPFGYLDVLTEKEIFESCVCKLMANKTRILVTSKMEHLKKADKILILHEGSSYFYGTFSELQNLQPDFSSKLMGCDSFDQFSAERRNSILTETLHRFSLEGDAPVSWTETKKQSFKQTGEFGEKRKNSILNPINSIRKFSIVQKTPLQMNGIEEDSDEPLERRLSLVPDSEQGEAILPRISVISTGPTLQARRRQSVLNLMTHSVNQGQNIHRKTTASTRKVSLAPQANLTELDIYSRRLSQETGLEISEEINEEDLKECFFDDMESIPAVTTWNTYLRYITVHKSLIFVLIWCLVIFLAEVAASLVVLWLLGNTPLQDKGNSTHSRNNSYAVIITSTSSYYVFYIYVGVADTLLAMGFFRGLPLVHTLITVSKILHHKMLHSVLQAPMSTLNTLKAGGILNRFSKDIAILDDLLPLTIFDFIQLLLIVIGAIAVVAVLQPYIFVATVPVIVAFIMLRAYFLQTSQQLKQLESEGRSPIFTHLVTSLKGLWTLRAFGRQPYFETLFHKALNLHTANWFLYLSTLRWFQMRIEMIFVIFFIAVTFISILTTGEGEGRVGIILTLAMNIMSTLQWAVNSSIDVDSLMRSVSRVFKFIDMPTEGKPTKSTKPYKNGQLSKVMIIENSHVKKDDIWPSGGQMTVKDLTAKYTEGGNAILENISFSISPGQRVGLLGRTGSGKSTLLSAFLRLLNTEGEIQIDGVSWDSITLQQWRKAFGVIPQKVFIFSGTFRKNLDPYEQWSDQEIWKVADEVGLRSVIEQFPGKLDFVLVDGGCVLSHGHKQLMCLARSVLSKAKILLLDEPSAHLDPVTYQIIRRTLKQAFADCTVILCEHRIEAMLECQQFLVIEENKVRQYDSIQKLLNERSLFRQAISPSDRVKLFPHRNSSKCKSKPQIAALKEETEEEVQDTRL
In short: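 Channel opening potentiation measured as 1−F/F0, where F is YFP fluorescence 7 s after iodide injection and F0 before; EC50 taken from concentration plot. Cells: HEK293 transiently expressing CFTR G551D plus halide-sensitive YFP (H148Q, I152L, F47L), 24 h at 37 °C, 5% CO2.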

[3] = target: T3, CFTR-S549N (Homo sapiens, UniProt P13569, S549N); assay: YFP-halide influx assay for the CFTR-S549N
T3 construct: expressed in transfected cells
T3 sequence (P13569 whole entry S549N): as the sequence (P13569 whole entry G551D) above, with S549N, D551G counted along it
Text: as §1, §2, §3, §4

[4] = target: T4, CFTR-R117H (Homo sapiens, UniProt P13569, R117H); assay: YFP-halide influx assay for the CFTR-R117H
T4 construct: expressed in transfected cells
T4 sequence (P13569 whole entry R117H): as the sequence (P13569 whole entry G551D) above, with R117H, D551G counted along it
Text: as §1, §2, §3, §4

[5] = target: T5, CFTR-G178R (Homo sapiens, UniProt P13569, G178R); assay: YFP-halide influx assay for the CFTR-G178R
T5 construct: expressed in transfected cells
T5 sequence (P13569 whole entry G178R): as the sequence (P13569 whole entry G551D) above, with G178R, D551G counted along it
Text: as §1, §2, §3, §4

[6] = target: T6, CFTR ΔF508 mutant (Homo sapiens, UniProt P13569, DEL508-508); assay: YFP-halide influx assay for the CFTR-ΔF508 mutation (384 well, FDSS/μCell); conditions: CFBE41o- cells, CFTR-ΔF508, 1×D-PBS, fluorescence after 36 seconds
T6 construct: expressed in transfected cells; host or cells: CFBE41o- (adenoviral transduction)
T6 sequence (P13569 with tags, fused parts or gaps DEL508-508): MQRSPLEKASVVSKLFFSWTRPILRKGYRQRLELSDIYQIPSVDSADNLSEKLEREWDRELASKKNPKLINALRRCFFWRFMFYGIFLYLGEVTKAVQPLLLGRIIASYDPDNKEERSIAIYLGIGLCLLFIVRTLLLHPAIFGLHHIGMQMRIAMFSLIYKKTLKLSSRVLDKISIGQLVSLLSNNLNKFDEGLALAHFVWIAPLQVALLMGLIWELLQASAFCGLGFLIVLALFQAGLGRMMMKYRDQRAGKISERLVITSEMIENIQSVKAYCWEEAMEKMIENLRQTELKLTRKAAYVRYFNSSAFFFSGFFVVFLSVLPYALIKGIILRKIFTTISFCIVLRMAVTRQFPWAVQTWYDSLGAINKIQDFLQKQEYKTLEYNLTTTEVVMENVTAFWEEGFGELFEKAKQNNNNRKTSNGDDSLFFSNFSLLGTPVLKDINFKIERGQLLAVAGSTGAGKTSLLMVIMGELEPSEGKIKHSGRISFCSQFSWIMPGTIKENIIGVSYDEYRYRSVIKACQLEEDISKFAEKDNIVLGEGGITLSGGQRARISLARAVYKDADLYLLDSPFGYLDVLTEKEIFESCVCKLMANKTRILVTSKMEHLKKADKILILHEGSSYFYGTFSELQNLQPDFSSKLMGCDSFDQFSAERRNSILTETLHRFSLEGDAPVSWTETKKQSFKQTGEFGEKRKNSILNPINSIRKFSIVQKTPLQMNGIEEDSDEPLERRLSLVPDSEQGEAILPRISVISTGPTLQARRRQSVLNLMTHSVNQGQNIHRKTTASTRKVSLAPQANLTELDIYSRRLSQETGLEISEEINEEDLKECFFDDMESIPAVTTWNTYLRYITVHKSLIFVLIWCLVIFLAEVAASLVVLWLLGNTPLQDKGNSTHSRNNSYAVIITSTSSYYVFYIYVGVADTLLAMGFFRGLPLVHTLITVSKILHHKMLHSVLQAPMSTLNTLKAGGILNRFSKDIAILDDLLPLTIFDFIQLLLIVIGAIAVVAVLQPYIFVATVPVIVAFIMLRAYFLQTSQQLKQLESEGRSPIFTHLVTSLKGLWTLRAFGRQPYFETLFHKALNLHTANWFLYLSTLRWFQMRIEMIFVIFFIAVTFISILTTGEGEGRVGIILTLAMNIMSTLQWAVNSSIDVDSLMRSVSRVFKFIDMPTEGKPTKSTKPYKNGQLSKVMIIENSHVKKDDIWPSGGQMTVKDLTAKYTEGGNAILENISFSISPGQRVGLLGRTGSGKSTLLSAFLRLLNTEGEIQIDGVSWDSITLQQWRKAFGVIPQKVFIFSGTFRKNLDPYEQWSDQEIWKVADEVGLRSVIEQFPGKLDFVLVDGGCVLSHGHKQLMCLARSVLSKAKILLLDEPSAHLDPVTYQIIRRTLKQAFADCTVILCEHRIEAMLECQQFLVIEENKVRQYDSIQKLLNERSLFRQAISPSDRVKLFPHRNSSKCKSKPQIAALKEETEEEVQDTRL
In short: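 Potentiator read-out as 1−F/F0, F taken 36 s after iodide addition, EC50 fitted against compound concentration. Cells: CFBE41o- expressing ΔF508 CFTR plus halide-sensitive YFP via adenovirus, rescued by 27 °C for 24 h or 24 h modulator at 37 °C.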

T1 sequence (P13569 whole entry G1349D): as the sequence (P13569 whole entry G551D) above, with D551G, G1349D counted along it

CC(C)(O)C(=O)Nc1sc(S(=O)(=O)c2ccc(OC(F)F)cc2)cc1C(N)=O [Compound 380, 5-[4-(difluoromethoxy)phenyl] sulfonyl-2-[(2-hydroxy-2-methyl-propanoyl)amino] thiophene-3-carboxamide]
EC50 [1]: 276 nM
EC50 [2]: 450 nM
EC50 [3]: 387 nM
EC50 [4]: 144 nM
EC50 [5]: 107 nM
EC50 [6]: 17.6 nM

CC(CO)C(=O)Nc1sc(S(=O)(=O)c2ccc(Cl)cc2OC(F)(F)F)cc1C(N)=O (stereo not drawn) [Compound 387, 5-[4-chloro-2-(trifluoromethoxy)phenyl] sulfonyl-2-[(3-hydroxy-2-methyl-propanoyl)amino] thiophene-3-carboxamide]
EC50 [1]: 83.6 nM
EC50 [2]: 1410 nM
EC50 [3]: 210 nM
EC50 [4]: 49.5 nM
EC50 [5]: 87.6 nM
EC50 [6]: 22.3 nM

CC(C)(O)C(=O)Nc1sc(S(=O)(=O)c2ccc(C(F)(F)F)nc2)cc1C(N)=O [Compound 389, 2-[(2-hydroxy-2-methyl-propanoyl)amino]-5-[[6-(trifluoromethyl)-3-pyridyl]sulfonyl] thiophene-3-carboxamide]
EC50 [1]: 204 nM
EC50 [2]: 813 nM
EC50 [3]: 531 nM
EC50 [4]: 247 nM
EC50 [5]: 91.5 nM
EC50 [6]: 46.3 nM

CC(C)(O)C(=O)Nc1sc(S(=O)(=O)c2cc(C(F)(F)F)ncc2Cl)cc1C(N)=O [Compound 390, 5-[[5-chloro-2-(trifluoromethyl)-4-pyridyl]sulfonyl]-2-[(2-hydroxy-2-methyl-propanoyl)amino] thiophene-3-carboxamide]
EC50 [1]: 293 nM
EC50 [2]: 668 nM
EC50 [3]: 322 nM
EC50 [4]: 221 nM
EC50 [5]: 103 nM
EC50 [6]: 44.1 nM

CC(C)(O)C(=O)Nc1sc(S(=O)(=O)c2cc(Cl)ccc2OC(F)(F)F)cc1C(N)=O [Compound 391, 5-[5-chloro-2-(trifluoromethoxy)phenyl] sulfonyl-2-[(2-hydroxy-2-methyl-propanoyl)amino] thiophene-3-carboxamide]
EC50 [1]: 25.9 nM
EC50 [2]: 53.2 nM
EC50 [3]: 42.1 nM
EC50 [4]: 33.8 nM
EC50 [5]: 12.9 nM
EC50 [6]: 14.9 nM

CC(C)(O)C(=O)Nc1sc(S(=O)(=O)c2ccc(C#N)cc2OC(F)(F)F)cc1C(N)=O [Compound 393, 5-[4-cyano-2-(trifluoromethoxy)phenyl] sulfonyl-2-[(2-hydroxy-2-methyl-propanoyl)amino] thiophene-3-carboxamide]
EC50 [1]: 159 nM
EC50 [2]: 662 nM
EC50 [3]: 256 nM
EC50 [4]: 47.6 nM
EC50 [5]: 56.7 nM
EC50 [6]: 14.8 nM

CC(C)(O)C(=O)Nc1sc(S(=O)(=O)c2cnc(C(F)(F)F)nc2)cc1C(N)=O [Compound 394, 2-[(2-hydroxy-2-methyl-propanoyl)amino]-5-[2-(trifluoromethyl)pyrimidin-5-yl]sulfonyl-thiophene-3-carboxamide]
EC50 [1]: 3330 nM
EC50 ([2]; class symbol): > 1000 nM
EC50 ([3]; class symbol): > 1000 nM
EC50 [4]: 3320 nM
EC50 [5]: 3330 nM
EC50 [6]: 354 nM

CC(C)(O)C(=O)Nc1sc(S(=O)(=O)c2cnc(C(F)(F)F)cn2)cc1C(N)=O [Compound 397, 2-[(2-hydroxy-2-methyl-propanoyl)amino]-5-[5-(trifluoromethyl)pyrazin-2-yl]sulfonyl-thiophene-3-carboxamide]
EC50 [1]: 413 nM
EC50 [2]: 1790 nM
EC50 [3]: 678 nM
EC50 [4]: 259 nM
EC50 [5]: 417 nM
EC50 [6]: 30.7 nM

CC(C)(O)C(=O)Nc1sc(S(=O)(=O)c2cc(Cl)ccc2OC(F)F)cc1C(N)=O [Compound 401, 5-[5-chloro-2-(difluoromethoxy)phenyl] sulfonyl-2-[(2-hydroxy-2-methyl-propanoyl)amino] thiophene-3-carboxamide]
EC50 [1]: 49.3 nM
EC50 [2]: 126 nM
EC50 [3]: 91.4 nM
EC50 [4]: 86.5 nM
EC50 [5]: 105 nM
EC50 [6]: 6.53 nM

COc1cc(S(=O)(=O)c2cc(C(N)=O)c(NC(=O)C(C)(C)O)s2)c(OC(F)F)cc1F [Compound 402, 5-[2-(difluoromethoxy)-4-fluoro-5-methoxy-phenyl] sulfonyl-2-[(2-hydroxy-2-methyl-propanoyl)amino] thiophene-3-carboxamide]
EC50 [1]: 3330 nM
EC50 [2]: 1400 nM
EC50 [3]: 1020 nM
EC50 [4]: 273 nM
EC50 [5]: 248 nM
EC50 [6]: 25.6 nM

CC(C)(O)C(=O)Nc1sc(S(=O)(=O)c2cc(F)c(F)cc2OC(F)F)cc1C(N)=O [Compound 404, 5-[2-(difluoromethoxy)-4,5-difluoro-phenyl] sulfonyl-2-[(2-hydroxy-2-methyl-propanoyl)amino] thiophene-3-carboxamide]
EC50 [1]: 1490 nM
EC50 [2]: 553 nM
EC50 [3]: 1810 nM
EC50 [4]: 283 nM
EC50 [5]: 126 nM
EC50 [6]: 14.3 nM

CC(C)(O)C(=O)Nc1sc(S(=O)(=O)c2c(F)cc(F)cc2OC(F)F)cc1C(N)=O [Compound 405, 5-[2-(difluoromethoxy)-4,6-difluoro-phenyl]sulfonyl-2-[(2-hydroxy-2-methyl-propanoyl)amino] thiophene-3-carboxamide]
EC50 [1]: 3330 nM
EC50 [2]: 4520 nM
EC50 [3]: 1370 nM
EC50 [4]: 155 nM
EC50 [5]: > 1000 nM
EC50 [6]: 19.6 nM

CC(C)(O)C(=O)Nc1sc(S(=O)(=O)c2ccc(C#N)cc2C(F)(F)F)cc1C(N)=O [Compound 407, 5-[4-cyano-2-(trifluoromethyl)phenyl] sulfonyl-2-[(2-hydroxy-2-methyl-propanoyl)amino] thiophene-3-carboxamide]
EC50 [1]: 3330 nM
EC50 [2]: 3330 nM
EC50 [3]: 2860 nM
EC50 [4]: 262 nM
EC50 [5]: 1530 nM
EC50 [6]: 50.6 nM

CC(C)(O)C(=O)Nc1sc(S(=O)(=O)c2cccc(C(F)(F)F)c2)cc1C(N)=O [Compound 408, 2-[(2-hydroxy-2-methyl-propanoyl)amino]-5-[3-(trifluoromethyl)phenyl]sulfonyl-thiophene-3-carboxamide]
EC50 [1]: 149 nM
EC50 [2]: 1770 nM
EC50 [3]: 525 nM
EC50 [4]: 535 nM
EC50 [5]: 42.7 nM
EC50 [6]: 11 nM

CC(C)(O)C(=O)Nc1sc(S(=O)(=O)c2ncc(C(F)(F)F)cc2F)cc1C(N)=O [Compound 410, 5-[[3-fluoro-5-(trifluoromethyl)-2-pyridyl]sulfonyl]-2-[(2-hydroxy-2-methyl-propanoyl)amino] thiophene-3-carboxamide]
EC50 [1]: 120 nM
EC50 [2]: 708 nM
EC50 [3]: 104 nM
EC50 [4]: 138 nM
EC50 [5]: 80.1 nM
EC50 [6]: 14.1 nM

CC(C)(O)C(=O)Nc1sc(S(=O)(=O)c2ncccc2C(F)(F)F)cc1C(N)=O [Compound 411, 2-[(2-hydroxy-2-methyl-propanoyl)amino]-5-[[3-(trifluoromethyl)-2-pyridyl]sulfonyl] thiophene-3-carboxamide]
EC50 [1]: 1040 nM
EC50 [2]: 4920 nM
EC50 [3]: 861 nM
EC50 [4]: 488 nM
EC50 [5]: 136 nM
EC50 [6]: 61 nM

CC(C)(O)C(=O)Nc1sc(S(=O)(=O)c2nc(C(F)(F)F)ccc2C(F)(F)F)cc1C(N)=O [Compound 412, 5-[[3,6-bis(trifluoromethyl)-2-pyridyl]sulfonyl]-2-[(2-hydroxy-2-methyl-propanoyl)amino] thiophene-3-carboxamide]
EC50 [1]: 7.47 nM
EC50 [2]: 96.4 nM
EC50 [3]: 11.3 nM
EC50 [4]: 35.4 nM
EC50 [5]: 11.1 nM
EC50 [6]: 3.57 nM

— patent publication US9382254B2, “Compounds and pharmaceutical compositions thereof for the treatment of cystic fibrosis” (Galapagos NV, priority 2013, dated 2016)
